Test results taken from patent publication EP1206248B1, “CONTROLLED-RELEASE SEDATIVE-HYPNOTIC COMPOSITIONS AND METHODS RELATED THERETO” (Neurocrine Biosciences, Inc., priority 1999, dated 2001).
In brackets after ≈: the same amount, converted by molar mass.

Tests used:
[1] = Plasma half-life and pharmacokinetic parameters from plasma concentration-time profiles; type: in vivo; conditions: human
Source text: The mean plasma half-life of a sedative-hypnotic compound may be determined using well known techniques. Terminal half-life may be determined using standard pharmacokinetic calculations, such as those presented by Rolland and Tozer (Clinical Pharmacokinetics Concepts and Applications, 3rd. Ed., Chap. 3, 1995). In addition, software is commercially available which performs this calculation, such as the product sold under the tradename "WinNinlin™" (Prof. Ver.1.5). […]
To assess the plasma concentration time profiles, plasma concentration, Tmax and Tmin may be determined using well known techniques. […] Any suitable assay may be used to determine plasma levels, such as ELISA, RIA, or chromatography (e.g., gas-liquid chromatography or high pressure liquid chromatography) linked to any suitable detection system such as UV, fluorescence, mass spectrometry or an electrochemical system). […]
In this experiment, commercially available plasma profiling sofltware (GastroPlus™) (Simulations Plus Inc., CA) was used to simulate the effects of varying controlled release profiles and pharmacokinetic parameters based on in vivo plasma concentrations of NBI-34060 as measured in 12-healty male human subjects. […]

[2] = log D partition coefficient

CC(=O)N(C)c1cccc(-c2ccnc3c(C(=O)c4cccs4)cnn23)c1 [NBI-34060, N-methyl-N-(3-{3-[2-thienylcarbonyl]-pyrazolo-[1,5-a]-pyrimidin-7-yl}-phenyl)acetamide]
half-life ([1]; plasma half-life of NBI-34060): 1.3 h | Vd ([1]; male, one-compartment pharmacokinetic model, assuming 70 kg subject weight, read-out: volume of distribution (Vd)): 2.27 L/kg | logD [2]: 1.73 | resulting pH (Solubility in water; pH of the aqueous solution at approximately 20-30 µg/ml): approximately 8.0 | solubility (Solubility in water; water, pH 8, water): 20 to 30 µg/mL (≈ 53.1 to 79.7 µM)
